Results reported in article PMC6766655, “AhR–ROR-γt complex is a therapeutic target for MAP4K3/GLK^highIL-17A^high subpopulation of systemic lupus erythematosus” (The FASEB Journal, 2019).
pIC50: −log10 of the molar value.

Tests used:
GCK (MAP4K2) = molecular target: T1, GCK (MAP4K2) (Homo sapiens, UniProt Q12851); experiment: In vitro kinase assay, myelin basic protein as substrate (ADP-Glo); type: biochemical; settings: recombinant kinase domain
T1 construct: Recombinant proteins of kinase domains of various MAP4Ks were used; purchased Promega
T1 sequence (Q12851 16-273 limits assumed): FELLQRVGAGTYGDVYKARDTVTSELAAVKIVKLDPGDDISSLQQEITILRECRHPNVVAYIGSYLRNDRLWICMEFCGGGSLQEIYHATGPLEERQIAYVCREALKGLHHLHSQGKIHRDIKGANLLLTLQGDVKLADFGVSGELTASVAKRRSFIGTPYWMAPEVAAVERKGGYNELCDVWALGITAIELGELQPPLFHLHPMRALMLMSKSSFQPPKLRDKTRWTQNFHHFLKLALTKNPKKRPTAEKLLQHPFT

KHS (MAP4K5) = molecular target: T2, KHS (MAP4K5) (Homo sapiens, UniProt Q9Y4K4); experiment: as above; type: biochemical; settings: recombinant kinase domain
T2 construct: Recombinant proteins of kinase domains of various MAP4Ks were used; purchased Promega
T2 sequence (Q9Y4K4 20-277 limits assumed): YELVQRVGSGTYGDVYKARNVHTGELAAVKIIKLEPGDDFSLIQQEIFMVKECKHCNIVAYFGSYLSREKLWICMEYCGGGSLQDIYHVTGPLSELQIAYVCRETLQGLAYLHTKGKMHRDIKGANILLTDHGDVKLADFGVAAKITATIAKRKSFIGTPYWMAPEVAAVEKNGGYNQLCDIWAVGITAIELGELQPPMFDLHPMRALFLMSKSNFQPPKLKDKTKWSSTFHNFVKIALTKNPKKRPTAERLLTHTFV

CIA mice = experiment: Collagen-induced arthritis (CIA) in wild-type C57BL/6J mice; type: in vivo
Protocol: At 12 wk of age (d 0), male C57BL/6J mice were intradermally injected in the superficial layer of tail dermis with a total of 100 μl of an emulsion containing the chicken type II chicken collagen or Freund’s complete adjuvant emulsification (MD Biosciences, Oakdale, MN, USA) ([23]). The same injection was repeated intraperitoneally on d 21. Then, clinical signs of disease were assigned using the following clinical scores: 1, swollen digits; 2, erythema; 3, swollen paw or ankle; 4, loss of function. Mice were treated with verteporfin at a concentration of 0.4 μg/g body weight (0.556 nmol/g) by intravenous injection every 3 d starting from d 21 up to d 36.
Figure 4 Verteporfin (C1) suppresses IL-17 production and autoimmune responses in mice. A–C) Effect of C1 administration (0.4 μg/g body weight every 3 d for a period of 30 d) on serum IL-17A and autoantibodies in 20-wk-old Lck-GLK Tg mice. B) ELISA of serum IL-17A, IL-6, TNF-α, IFN-γ, and IL-17F in Lck-GLK Tg mice treated with C1 or PBS for 16 d. C) ELISA of serum autoantibodies in Lck-GLK Tg mice treated with C1 or PBS for 30 d. Means ± SEM are shown; n = 4/group. D) EAE induction in wild-type C57BL/6J mice treated with PBS or C1 (0.4 μg/g body weight every 3 d). Clinical scores are presented on a scale of 1–5. PBS group, n = 10; C1 group, n = 7. E) ELISA of IL-17A in the sera from MOG-immunized mice at day 16. F) Induction of CIA in wild-type C57BL/6J mice treated with C1 (0.4 μg/g body weight every 3 d) or PBS. Clinical scores are presented on a scale of 1–16; n = 4/group. G) ELISA of serum IL-17A in collagen-immunized mice at d 28. Data shown are representatives of 3 independent experiments. α-dsDNA, anti-dsDNA antibody; ANA, anti-nuclear antibody; N.S., not significant; RF, rheumatoid factor. Means ± SEM are shown. *P < 0.05, **P < 0.01, ***P < 0.001 (2-tailed Student’s t test).

murine primary T cells [1] = experiment: ELISA of cytokines in supernatants of anti-CD3/CD28-stimulated murine primary T cells; type: cell-based; settings: anti-CD3 plus anti-CD28
Source text: Primary human T cells were freshly isolated and negatively selected from the PBLs of clinical samples using a cocktail of biotin-conjugated anti-CD19, anti-CD14, and anti-CD11b antibodies (BioLegend) on a magnetic cell separation column (Miltenyi Biotec, Bergisch Gladbach, Germany) ([26]). In addition, primary murine T cells were negatively selected from the spleens of mice using magnetically coupled antibodies against CD11b, B220, CD49b, CD235, and TER-119 (Miltenyi Biotec) ([18]).
We further studied whether IL-17A production is abolished by verteporfin in human and murine T cells. We first tested the inhibitory effect of verteporfin in murine T cells stimulated with T-cell receptor (TCR) signaling (anti-CD3 plus anti-CD28 antibodies). […] This reduction is likely due to the inhibition of NF-κB activation ([18]) by the verteporfin treatment. This notion is supported by our published results that TCR-induced TNF-α and IFN-γ levels in T cells are inhibited by IKK-β conditional knockout ([18]). Next, we studied whether verteporfin attenuates IL-17A production using human peripheral blood T cells with stimulation. The levels of T-cell–secreted IL-17A in unstimulated T cells from patients with SLE and RA were enhanced compared with those from healthy controls (Fig. 5B). […] GLK overexpression in T cells selectively induces IL-17A production in Lck-GLK Tg mice ([18]). […] The inhibition of the production of other cytokines by the high-dose but not low-dose verteporfin treatment may be due to a requirement of higher concentration of verteporfin for an efficient inhibition of NF-κB activation.
Figure 5 Verteporfin (C1) blocks IL-17 production of human T cells. A) ELISA of various cytokines in supernatants of murine primary T cells stimulated with anti-CD3 or CD28 and cotreated with C1 (5 or 10 μM) for 3 d. Means ± SD are shown; n = 3/group. B) ELISA of various cytokines in supernatants of human T cells. T cells were stimulated with anti-CD3 or CD28 and cotreated with C1 (1 or 5 μM) for 3 d. HC, healthy control; N.S., not significant. Means ± SD are shown. *P < 0.05, **P < 0.01, ***P < 0.001 (2-tailed Student’s t test).

murine primary T cells [2] = experiment: Cell death of murine primary T cells (Fixable Viability Stain 780, flow cytometry); type: cell-based; settings: 1 or 5 μM for 3 d, anti-CD3/CD28 stimulated
Protocol: Supplementary Figure 4. […] Murine primary T cells were stimulated with anti-CD3/CD28 and co-treated with verteporfin (C1) (1 or 5 μM) for 3 days. Dead T cells were labeled with Fixable Viability Stain 780 (FVS 780; BD Biosciences) and then determined by flow cytometry. Data shown are representatives of four independent experiments.

Substance: verteporfin
- pIC50 (GCK (MAP4K2)): 7.99
- pIC50 (KHS (MAP4K5)): 7.36
- serum levels of IL-6, TNF-α, IFN-γ, and IL-4, CIA (CIA mice; 0.4 μg/g body weight i.v. every 3 d): not significantly decreased
- serum IL-17A levels, CIA (CIA mice; 0.4 μg/g body weight i.v. every 3 d, d 28): significantly suppressed
- disease severity (clinical score), CIA (CIA mice; 0.4 μg/g body weight i.v. every 3 d from d 21): significantly suppressed
- TCR-induced IL-17A production (murine primary T cells [1]; 5 or 10 μM for 3 d): drastically abolished
- TCR-induced IL-17B, IL-17E, and IL-17F levels (murine primary T cells [1]; 5 or 10 μM for 3 d): not significantly decreased
- TCR-induced TNF-α levels (murine primary T cells [1]; 5 or 10 μM for 3 d): slightly but not significantly reduced
- TCR-induced IFN-γ levels (murine primary T cells [1]; high-dose 10 μM for 3 d): significantly inhibited
- cell death of murine primary T cells (murine primary T cells [2]): did not enhance cell death
- cell death of murine primary T cells (murine primary T cells [2]; listed as Verteporfin): does not induce cell death
